Test results as given in ChEMBL document CHEMBL4020775, “QSAR studies of the bioactivity of hepatitis C virus (HCV) NS3/4A protease inhibitors by multiple linear regression (MLR) and support vector machine (SVM)” (Bioorg Med Chem Lett, 2017).

Experiments:
[1] = Inhibition of HCV NS3/4A protease; set-up: species or system Hepacivirus hominis
[2] = Inhibition of HCV NS3/4A protease using AcDTEDVVP(Nva)-O-PAP as substrate pretreated with substrate for 3 mins followed by enzyme addition measured after 60 mins by spectrophotometric method; set-up: species or system Hepacivirus hominis

Row | IC50 [1] | Ki [2] | SMILES
1 | 2.6 nM | – | C=C[C@@H]1C[C@]1(NC(=O)[C@@H]1C[C@@H](Oc2ncc(OC)c3ccc(Cl)cc23)CN1C(=O)[C@@H](NC(=O)OC(C)(C)C)C(C)(C)C)C(=O)NS(=O)(=O)C1CC1 [ASUNAPREVIR]
2 | – | 14 nM | CC(C)(C)NC(=O)N[C@H](C(=O)N1C[C@H]2[C@@H]([C@H]1C(=O)NC(CC1CCC1)C(=O)C(N)=O)C2(C)C)C(C)(C)C (some centres undefined) [BOCEPREVIR]
3 | 0.18 nM | – | Cc1cnc(C(=O)N[C@H]2CCCCC/C=C\[C@@H]3C[C@@]3(C(=O)NS(=O)(=O)C3CC3)NC(=O)[C@@H]3C[C@@H](Oc4nc5ccccc5c5ccccc45)CN3C2=O)cn1 [PARITAPREVIR]
4 | 1030 nM | – | CCC[C@H](NC(=O)[C@@H]1[C@H]2CCC[C@H]2CN1C(=O)[C@@H](NC(=O)[C@@H](NC(=O)c1cnccn1)C1CCCCC1)C(C)(C)C)C(=O)C(=O)NC1CC1 [TELAPREVIR]
